Experimental data reported in PMC6917776, “Discovery of a chemical probe for PRDM9” (Nature Communications, 2019).
Values joined by “and” are separate entries in the source; they are usually repeats but may differ in a detail not shown here. Equal entries are not always repeated.

How the values were obtained:
[1] = molecular target: T1, Histamine H3 (Homo sapiens, UniProt Q9Y5N1); experiment: Eurofins Panlabs panel, radioligand binding; settings: at 10 µM
T1 construct: NIMH Psychoactive Drug Screening Program, University of North Carolina at Chapel Hill

[2] = test system: HEK293T cells; experiment: Cell growth, IncuCyte ZOOM cell number; type: cell-based; settings: for Cell growth (Cell#): technical replicates
Description: HEK293T or MCF7 cells were seeded on 96-well plates and the following day treated with compounds for indicated time. Cell number was determined with Vybrant® DyeCycle™ Green using IncuCyte™ ZOOM live cell imaging device (Essen Bioscence) and analyzed with IncuCyte™ ZOOM (2015A) software.
(top graphs) and MCF7 cells (bottom graph). Cells were treated with compounds for 2 and 4 days or 5 days in case of MCF7. Cell number was measured using IncuCyte™ ZOOM live cell imaging device. The results are MEAN +/- SEM, n=3 (technical replicates). Source data are provided as a Source Data file.
(1 picture or pasted object on this page, not shown here)

[3] = molecular target: T2, Adrenergic α2B (Homo sapiens, UniProt P18089); experiment: Eurofins Panlabs panel, radioligand binding; settings: at 10 µM
T2 construct: NIMH Psychoactive Drug Screening Program, University of North Carolina at Chapel Hill

[4] = molecular target: T3, Muscarinic M2 (Homo sapiens, UniProt P08172); experiment: GPCR functional activity, GloSensor assay (agonist and antagonist mode); type: cell-based; settings: for M2 Tango Agonist, raw signal / M2 Tango Antagonist, raw signal: replicates 1-4
T3 construct: NIMH Psychoactive Drug Screening Program, University of North Carolina at Chapel Hill
T3 sequence (P08172 1-466): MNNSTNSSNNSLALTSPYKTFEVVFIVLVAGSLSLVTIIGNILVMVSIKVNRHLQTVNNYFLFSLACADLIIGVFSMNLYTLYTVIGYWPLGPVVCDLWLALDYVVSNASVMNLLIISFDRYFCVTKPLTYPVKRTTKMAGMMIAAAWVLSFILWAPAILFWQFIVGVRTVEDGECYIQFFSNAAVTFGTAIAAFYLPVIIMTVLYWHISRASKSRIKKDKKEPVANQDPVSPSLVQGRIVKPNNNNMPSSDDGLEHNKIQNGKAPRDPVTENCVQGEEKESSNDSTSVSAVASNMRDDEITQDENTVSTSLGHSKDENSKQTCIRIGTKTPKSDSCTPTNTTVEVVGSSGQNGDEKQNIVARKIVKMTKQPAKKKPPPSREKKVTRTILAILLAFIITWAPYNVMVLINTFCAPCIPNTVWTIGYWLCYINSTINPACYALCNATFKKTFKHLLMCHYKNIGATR

[5] = molecular target: PRDM9 (Homo sapiens, UniProt Q9NQV7); experiment: PRDM9 cellular assay: H3K4me3 of exogenous H3-GFP in HEK293T cells (western blot); type: cell-based
Description: HEK293T cells were co-transfected with H3-GFP and PRDM9-FLAG and treated with compounds at indicated concentrations for 20 h. Mut denotes PRDM9 catalytic mutant (Y357S). […] Cells were treated with compounds for 1 day. Cell number was measured using IncuCyte™ ZOOM live cell imaging device. The results are mean ± sd, n = 3. Source data are provided as a Source Data file.
HEK293T (kind gift from Sam Benchimol, York University), or MCF7 (ATCC® HTB-22™), cells were plated (12 well plates) and next day co-transfected with 0.1 (HEK293T) or 0.2 (MCF7) µg of GFP-tagged histone H3 and with 0.1 (HEK293T) or 0.2 (MCF7) µg of Flag-tagged PRDM9/PRDM9 catalytic mutant (Y357S) and 0.8 or 0.6 µg of empty vector using JetPRIME® transfection reagent, following manufacturer instructions. After 4 h media was removed and cells were treated with compounds for 20 h. Next day, cells were lysed in lysis buffer (20 mM Tris-HCl pH 8, 150 mM NaCl, 1 mM EDTA, 10 mM MgCl2, 0.5% TritonX-100, 12.5 U mL^−1 benzonase (Sigma), complete EDTA-free protease inhibitor cocktail (Roche)). After 2 min incubation at RT, SDS was added to final 1% concentration. Cell lysates were analyzed in western blot for GFP and H3K4me3 levels. All cell lines were mycoplasma negative, as determined by MycoAlert™ Mycoplasma Detection Kit (Lonza).
Total cell lysates were resolved in 4–12% Bis-Tris Protein Gels (Invitrogen) and transferred in for 1.5 h (80 V) onto PVDF membrane (Millipore) in Tris-Glycine transfer buffer containing 20% MeOH and 0.05% SDS. Blots were blocked for 1 h in blocking buffer (5% milk in PBS) and incubated with primary antibodies anti-GFP (1:3000, Clontech # 632381), anti-H3K4me3 (1:1000, Millipore, #04-745), anti-histone H3 (1:2000, #ab10799, Abcam), anti-Flag (1:5000, #F4799, Sigma) in blocking buffer (5% BSA in 0.1% Tween 20 PBS) overnight at 4 °C. After five washes with 0.1% Tween 20 PBS the blots were incubated with goat-anti rabbit (IR800) and donkey anti-mouse (IR 680) antibodies (1:5000) in Odyssey Blocking Buffer (LiCor) for 1 h at RT and washed five times with 0.1% Tween 20 PBS. The signal was read on an Odyssey scanner (LiCor) at 800 nm and 700 nm and analyzed with Image Studio Ver.5.2 software.

Sequence of PRDM9 (Q9NQV7 whole entry): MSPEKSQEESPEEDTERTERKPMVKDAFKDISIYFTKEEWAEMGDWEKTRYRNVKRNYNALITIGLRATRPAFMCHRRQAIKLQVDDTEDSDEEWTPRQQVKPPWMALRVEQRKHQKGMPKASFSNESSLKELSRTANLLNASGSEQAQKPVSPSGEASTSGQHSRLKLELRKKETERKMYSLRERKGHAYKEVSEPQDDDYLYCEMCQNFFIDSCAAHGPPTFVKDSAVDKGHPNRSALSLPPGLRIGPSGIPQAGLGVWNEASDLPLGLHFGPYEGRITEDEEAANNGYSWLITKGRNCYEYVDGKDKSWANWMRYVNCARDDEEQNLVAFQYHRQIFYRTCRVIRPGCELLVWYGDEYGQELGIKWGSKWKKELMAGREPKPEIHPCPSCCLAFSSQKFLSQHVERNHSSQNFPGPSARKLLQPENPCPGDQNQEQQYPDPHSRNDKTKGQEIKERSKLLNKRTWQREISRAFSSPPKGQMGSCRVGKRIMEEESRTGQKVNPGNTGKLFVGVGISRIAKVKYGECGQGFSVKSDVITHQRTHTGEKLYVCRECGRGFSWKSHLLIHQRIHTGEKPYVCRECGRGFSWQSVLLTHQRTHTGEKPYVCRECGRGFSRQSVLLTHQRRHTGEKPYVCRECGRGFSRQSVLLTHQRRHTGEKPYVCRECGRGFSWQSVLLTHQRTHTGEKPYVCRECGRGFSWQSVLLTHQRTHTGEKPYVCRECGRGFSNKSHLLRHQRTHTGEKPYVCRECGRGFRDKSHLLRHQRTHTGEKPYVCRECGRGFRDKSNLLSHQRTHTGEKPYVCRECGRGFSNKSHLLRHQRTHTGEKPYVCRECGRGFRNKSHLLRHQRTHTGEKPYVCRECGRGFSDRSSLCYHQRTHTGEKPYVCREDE
T2 sequence (P18089 whole entry): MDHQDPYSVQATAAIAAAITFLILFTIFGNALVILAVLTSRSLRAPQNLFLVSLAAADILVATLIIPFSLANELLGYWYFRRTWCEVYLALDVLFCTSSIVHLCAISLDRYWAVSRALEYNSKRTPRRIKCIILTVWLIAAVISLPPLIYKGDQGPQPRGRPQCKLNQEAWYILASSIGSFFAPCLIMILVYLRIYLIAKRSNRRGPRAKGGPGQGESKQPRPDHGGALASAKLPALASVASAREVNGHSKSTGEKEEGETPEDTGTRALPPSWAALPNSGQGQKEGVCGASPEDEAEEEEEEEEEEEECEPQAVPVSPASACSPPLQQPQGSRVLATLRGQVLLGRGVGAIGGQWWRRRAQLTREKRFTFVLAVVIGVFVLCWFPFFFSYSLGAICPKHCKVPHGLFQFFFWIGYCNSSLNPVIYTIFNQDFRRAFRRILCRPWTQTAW
T1 sequence (Q9Y5N1 whole entry): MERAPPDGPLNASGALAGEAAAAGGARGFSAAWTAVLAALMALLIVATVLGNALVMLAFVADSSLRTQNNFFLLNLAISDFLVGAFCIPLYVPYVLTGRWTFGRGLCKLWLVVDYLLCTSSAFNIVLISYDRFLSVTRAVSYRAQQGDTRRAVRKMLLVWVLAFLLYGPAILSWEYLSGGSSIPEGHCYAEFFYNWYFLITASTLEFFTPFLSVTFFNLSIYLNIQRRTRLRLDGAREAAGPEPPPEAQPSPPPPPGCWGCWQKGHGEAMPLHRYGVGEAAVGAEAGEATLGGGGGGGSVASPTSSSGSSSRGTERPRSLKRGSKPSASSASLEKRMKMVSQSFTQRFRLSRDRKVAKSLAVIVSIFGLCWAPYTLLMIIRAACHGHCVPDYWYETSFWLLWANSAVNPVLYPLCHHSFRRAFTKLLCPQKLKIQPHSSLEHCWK

## COc1cc(OC)cc(-c2noc(N3CCN(C)C4(CCN(c5ccnc(C)c5)CC4)C3)n2)c1 [MRK-740]
[1]
  Binding: > 50%
[2]; 10 µM, 24 h of treatment
  HEK293T cell growth, toxicity (in words): some toxicity
[2]; 10 µM, 4 days of treatment
  HEK293T cytotoxicity (in words): cytotoxicity was observed
[2]; HEK293, 2 day treatement, 1 µM
  Cell growth (Cell#): 84.8973 % control and 124.131 % control and 116.53 % control
[2]; HEK293, 2 day treatement, 3 µM
  Cell growth (Cell#): 73.843 % control and 124.215 % control and 124.008 % control
[2]; HEK293, 2 day treatement, 5 µM
  Cell growth (Cell#): 68.7811 % control and 110.358 % control and 122.96 % control
[2]; HEK293, 2 day treatement, 10 µM
  Cell growth (Cell#): 55.0249 % control and 90.6823 % control and 84.1686 % control
[2]; HEK293, 4 day treatement, 0.3 µM
  Cell growth (Cell#): 115.326 % control and 111.309 % control and 103.491 % control
[2]; HEK293, 4 day treatement, 1 µM
  Cell growth (Cell#): 115.93 % control and 116.134 % control and 111.504 % control
[2]; HEK293, 4 day treatement, 3 µM
  Cell growth (Cell#): 115.346 % control and 109.669 % control and 118.771 % control
[2]; HEK293, 4 day treatement, 10 µM
  Cell growth (Cell#): 47.3939 % control and 45.1607 % control and 39.6851 % control
[3]
  Binding: > 50%
[4]; agonist and antagonist mode
  Functional activity (in words): no functional activity
[4]; log[MRK-740] -4.52
  M2 Tango Agonist, raw signal: 1230.87 and 608.6 and 2018.05 and 925.229
  M2 Tango Antagonist, raw signal: 1892.98 and 2737.32 and 2580.15 and 2057.03
[4]; log[MRK-740] -5
  M2 Tango Agonist, raw signal: 1170.4 and 556.928 and 885.65 and 2239.04
  M2 Tango Antagonist, raw signal: 2819.92 and 2620.3 and 3056.24 and 3398.11
[4]; log[MRK-740] -5.52
  M2 Tango Agonist, raw signal: 908.738 and 686.657 and 1321.02 and 1693.72
  M2 Tango Antagonist, raw signal: 11268.6 and 11778 and 17270.9 and 14621.3
[4]; log[MRK-740] -6
  M2 Tango Agonist, raw signal: 612.997 and 2403.96 and 980.199 and 1368.29
  M2 Tango Antagonist, raw signal: 16800.4 and 13053.9 and 12658.1 and 16097
[4]; log[MRK-740] -6.52
  M2 Tango Agonist, raw signal: 1008.78 and 553.629 and 1327.61 and 250.195
  M2 Tango Antagonist, raw signal: 19522.3 and 17447.6 and 21435.3 and 11694.3
[4]; log[MRK-740] -7
  M2 Tango Agonist, raw signal: 841.674 and 505.256 and 883.451 and 1474.94
  M2 Tango Antagonist, raw signal: 19642.8 and 20162.6 and 13226 and 9835.52
[4]; log[MRK-740] -7.52
  M2 Tango Agonist, raw signal: 1908.11 and 681.16 and 1388.08 and 3242.84
  M2 Tango Antagonist, raw signal: 21785.3 and 16504.3 and 11050.6 and 14699.4
[4]; log[MRK-740] -8
  M2 Tango Agonist, raw signal: 903.241 and 865.861 and 1293.53 and 833.978
  M2 Tango Antagonist, raw signal: 17075.8 and 13974.2 and 18134.9 and 13350
[4]; log[MRK-740] -8.52
  M2 Tango Agonist, raw signal: 3423.68 and 634.694 and 1797.23 and 346.523
  M2 Tango Antagonist, raw signal: 19019.9 and 15122.7 and 15169.2 and 14917.8
[4]; log[MRK-740] -9
  M2 Tango Agonist, raw signal: 2386.23 and 137.073 and 3399.79 and 858.202
  M2 Tango Antagonist, raw signal: 17183.9 and 21120.4 and 14888.7 and 14358.1
[4]; log[MRK-740] -9.52
  M2 Tango Agonist, raw signal: 623.448 and 315.598 and 869.448 and 1092.96
  M2 Tango Antagonist, raw signal: 22350.3 and 15858.2 and 16819.1 and 15951.3
[4]; log[MRK-740] -10
  M2 Tango Agonist, raw signal: 2109.3 and 935.517 and 704.979 and 1937.8
  M2 Tango Antagonist, raw signal: 21021.6 and 16763.8 and 20216.2 and 13987.5
[4]; log[MRK-740] -10.52
  M2 Tango Agonist, raw signal: 1187.14 and 1805.66 and 1171.68 and 1424.71
  M2 Tango Antagonist, raw signal: 18293 and 14853.8 and 17839.5 and 22558.2
[4]; log[MRK-740] -11
  M2 Tango Agonist, raw signal: 648.751 and 5178.11 and 914.431 and 991.746
  M2 Tango Antagonist, raw signal: 17836.6 and 15099.5 and 17153.4 and 15587.9
[4]; log[MRK-740] -11.52
  M2 Tango Agonist, raw signal: 2954.16 and 1388.16 and 1004.4 and 790.728
  M2 Tango Antagonist, raw signal: 13959.9 and 19316.4 and 14923.6 and 25119.7
[4]; log[MRK-740] -12
  M2 Tango Agonist, raw signal: 606.579 and 917.242 and 726.065 and 3353.4
  M2 Tango Antagonist, raw signal: 15989 and 24141.3 and 15762.3 and 20389.2
[5]; H3-GFP and PRDM9-FLAG co-transfected, 20 h of treatment, read-out: IC50, PRDM9-dependent trimethylation of ectopic H3K4
  IC50: 800 ± 100 nM
[5]; HEK-293T, 20 h, 0.123455 µM, Figure 6b, replicates, read-out: H3K4me3/GFP - western blot, % control
  remaining activity at 0.123455 µM: 109%
[5]; HEK-293T, 20 h, 0.370374 µM, Figure 6b, replicates, read-out: H3K4me3/GFP - western blot, % control
  remaining activity at 0.370374 µM: 89.7%
[5]; HEK-293T, 20 h, 1.11111 µM, Figure 6b, replicates, read-out: H3K4me3/GFP - western blot, % control
  remaining activity at 1.11111 µM: 25.7%
[5]; HEK-293T, 20 h, 3.33334 µM, Figure 6b, replicates, read-out: H3K4me3/GFP - western blot, % control
  remaining activity at 3.33334 µM: 11.4%
[5]; HEK-293T, 20 h, 30 µM, Figure 6b, replicates, read-out: H3K4me3/GFP - western blot, % control
  remaining activity at 30 µM: 3.21%
[5]; HEK-293T, read-out: IC90, PRDM9-dependent H3K4 trimethylation in cells
  IC90: 3000 nM
